According to US6369066B1, “Substituted 1,3-oxathiolanes with antiviral properties” (BioChem Pharma, Inc., priority 1990, dated 2002):
Values after ≈ are worked out from the molar mass of the structure shown. Read-outs that look alike come from different tables or passages of the source.

Experiments:
Type in all cases: cell-based
HIV-1 IIIB = assay: IC50 in CBMCs with HIV-1 isolate IIIB
Experimental: (§1) In short, viruses (HTLV-IIIB) that had initially been grown on MT-4 cells were passaged onto phytohemaglutinin-prestimulated cord blood mononuclear cells (CBM). For subsequent analysis, samples of CBM (5×10^5 cells per mL) were pretreated with various concentrations of the different compounds for 4 h and were then inoculated with CBL-grown HIV-1 at a multiplicity of infection of 1.0 in the concentration of the compound used for the pretreatment. Fresh medium, including the appropriate concentration of the compound was added three times weekly, and fresh phytohemaglutinin-prestimulated CBM (5×10^5 cells per mL) were added at 2-day intervals. The calculation of IC50 was determined on the basis of RT levels in culture fluids as described in Gao et al., (1992), J. Virol. 66: 12-19.
(§2) Determination of IC50 (μM) in Different Mutated Isolates of HIV-1 in the Presence of Different Antiviral Compounds
(§3) The procedure is similar to the procedure used in the CBM assay, with the exception that constructed virus and construted mutated virus were used.

HIV-1 HXB2D = assay: IC50 in CBMCs with constructed virus HXB2D
Experimental: as §1, §2, §3
(§4) The constructed virus HXB2D-65 correspond to the ddC resistance mutation and the constructed virus HXB2D-184 correspond to the 3TC™ and FTC resistance mutation.

[1] = system: HIV-1 HXB2D-65 K→R (ddC resistance mutation); assay: IC50 in CBMCs with constructed mutated virus HXB2D-65
Experimental: as §1, §2, §3, §4

[2] = system: HIV-1 HXB2D-184 M→V (3TC™ and FTC resistance mutation); assay: IC50 in CBMCs with constructed mutated virus HXB2D-184
Experimental: as §1, §2, §3, §4

HIV-1 strain RF = assay: Formazan (MTT) assay on MT-4 cells, anti-HIV-1 antiviral activity; settings: Human immunodeficiency virus 1, MT4, 168 h, MT-4 cells infected with HIV-1 strain RF, 7 days, read-out: IC50 (50% anti-viral dose, ID 50%)
Experimental: Formazan Assay on MT-4 and 3TC™-Resistant Cell Lines
(§5) Anti-HIV-1 antiviral activity was determined in MT-4 calls and MT-4 cells that have been made resistant to 3TC™. A suspension of cells (approximately 10^6 cells/ml) in RPMI 1640 growth medium was infected with HIV-1 strain RF at a M.O.I. of 10^−3 infectious units/cell. An uninfected cell suspension was prepared in parallel to evaluate drug-induced cytotoxicity. The two suspensions were incubated for 90 minutes at room temperature. Test compounds were serially diluted in 10-fold decrements from 100 μg/ml to 0.01 μg/ml (final concentrations in two 96 well microtitre plates. 20 μl of infected cell suspension were inoculated into each well of one of the plates (anti-viral), while 20 μl of uninfected cell suspension were added to each well of the second plate (cytotoxicity). The plates were then incubated for 7 days at 37° C. After incubation, 10 μl of 3-(4,5-dimethylthiazol-2-yl)-2,5-diphenyltetrazolium bromide (MTT) at 20 mg/ml was added to all wells and the plates incubated for a further 90 minutes at 37° C.
150 μl of 10% (v/v) alcoholic Triton X-100 was then added and the cells resuspended. After 15 minutes at room temperature, the plates were analyzed in a Multiskan MC reader at 405 nm. Conversion of yellow MMT to its formazan derivative is maximum in uninfected cells, and absent in untreated infected cells. The optical density values for the cytotoxicity controls and the antiviral test wells were graphically plotted and the dose of compounds required to inhibit the conversion of MMT to 50% of the untreated uninfected controls was calculated. In this way, both the 50% cytotoxic dose (CD 50%) and the 50% anti-viral dose (ID 50%) can be calculated.

HIV-1 (HTLV-IIIB) = assay: CBM assay, IC50 from RT levels in culture fluids; settings: Human immunodeficiency virus 1
Experimental: Assays on cord blood mononuclear cells were done substantially as described in Gu et al., J. Virol. (1992), 66:7128-7135.
as §1

HTLV-IIIb = assay: HIV-1 acutely infected cell lines, p24 antigen levels; settings: p24 antigen at day 6; for ID50 CEM: CEM cells infected with HTLV-IIIb; for ID50 H9: H9 cells infected with HTLV-IIIb; for ID50 Jurkat: Jurkat cells infected with HTLV-IIIb; for ID50 MT-4: MT-4 cells infected with HTLV-IIIb; for ID50 U937: U937 cells infected with HTLV-IIIb
Experimental: Determination of IC50 ([…]) in HIV-1 Acutely Infected Cell Lines in the Presence of Differet Antiviral Compounds
Various cell lines were infected with HTLV-IIIb (TCID50=200) and then cultured with various concentrations of drug. IC50 was determined by measuring p24 antigen levels in the supernatant of cultures at day 6 of infection.

CBMCs = assay: Cell culture inhibitory dose (CCID50) in CBMCs; settings: cell counting, trypan blue exclusion, 7 days post drug treatment
Experimental: (§6) Evaluation of Cell Culture Inhibitory Dose (CCID50)
(§7) Cell growth was determined by cell counting and viability by trypan blue exclusion 7 days post drug treatment. CCID50 is expressed as the drug concentration which inhibits 50% of cell growth.

MT-4 = assay: Cell culture inhibitory dose (CCID50) in MT-4; settings: cell counting, trypan blue exclusion, 7 days post drug treatment
Experimental: as §6, §7

U937 = assay: Cell culture inhibitory dose (CCID50) in U937; settings: cell counting, trypan blue exclusion, 7 days post drug treatment
Experimental: as §6, §7

Jurkat = assay: Cell culture inhibitory dose (CCID50) in Jurkat; settings: cell counting, trypan blue exclusion, 7 days post drug treatment
Experimental: as §6, §7

H9 = assay: Cell culture inhibitory dose (CCID50) in H9; settings: cell counting, trypan blue exclusion, 7 days post drug treatment
Experimental: as §6, §7

CEM = assay: Cell culture inhibitory dose (CCID50) in CEM; settings: cell counting, trypan blue exclusion, 7 days post drug treatment
Experimental: as §6, §7

MT-4 cells = assay: Formazan (MTT) assay, drug-induced cytotoxicity in uninfected MT-4 cells; settings: human, 7 days
Experimental: as §5, with “A suspension of cells (approximately 10^6 cells/ml) in RPMI 1640 growth medium was infected with HIV-1 strain RF at a M.O.I. of 10^−3 infectious units/cell.” left out
150 μl of 10% (v/v) alcoholic Triton X-100 was then added and the cells resuspended. After 15 minutes at room temperature, the plates were analyzed in a Multiskan MC reader at 405 nm. […] The optical density values for the cytotoxicity controls and the antiviral test wells were graphically plotted and the dose of compounds required to inhibit the conversion of MMT to 50% of the untreated uninfected controls was calculated.

[3] = system: cord blood mononuclear cells (CBM); assay: Cytotoxicity (CD50) reported with CBM assay
Experimental: Assays on cord blood mononuclear cells were done substantially as described in Gu et al., J. Virol.
as §1, with “The calculation of IC50 was determined on the basis of RT levels in culture fluids as described in Gao et al., (1992), J. Virol.” left out

human hepatitis B virus = assay: Inhibition of human hepatitis B virus in 2.2.15 cells, extracellular HBV DNA; settings: 10 day treatment
Experimental: Inhibition of Human Hepatitis B Virus.
(§8) The method used for this test is described in detail in Korba et al., Antiviral research 15, 217-228 (1992) which is shortly described as follows: Hep G2 cells transfected with human hepatitis B virus genomic DNA (2.2.15 cells) were grown and maintained in RPMI-1640 culture medium containing %5 foetal bovine serum, 2 mM glutamine and 50 μg/ml gentamicin sulphate, and checked routinely for G418 resistance. Cultures of 2.2.15 cells were grown to confluence in 24 well tissue culture plates and maintained for 2 to 3 days in that condition prior to drug treatment.
Drugs were dissolved in sterile water or sterile 50% DMSO in water at concentrations 100-fold higher than the higher test concentration. These solutions were diluted as needed in culture medium.
The culture medium on the confluent cells was changed 24 hours prior to exposure to test compounds. During the 10 day treatment, the culture medium was changed daily. After 10 days of the treatment, the culture medium was collected and frozen at −70° C. for HBV DNA analysis. […]
A purified 3.2 kb EcoR1 HBV DNA fragment was labeled with [^32p]dCTP by nick translation and used as a probe to detect HBV DNA on the dot-blot by DNA hybridization. After washing, the hybridized blot was dried and ^32p was quantified using an Ambis beta scanner.

[4] = system: 2.2.15 cells (Hep G2 cells transfected with human hepatitis B virus genomic DNA); assay: Cytotoxicity (CD50) reported with HBV assay; settings: HBV table
Experimental: as §8

[5] = Human immunodeficiency virus 1, read-out: IC50 HXB2D
[6] = Human immunodeficiency virus 1, read-out: IC50 HXB2D-65 K→R
[7] = Human immunodeficiency virus 1, read-out: IC50 HXB2D-184 M→V

| SMILES | IC50 (HIV-1 strain RF) [µg/mL] | IC50 (HIV-1 (HTLV-IIIB)) [µg/mL] | IC50 (HIV-1 IIIB; Human immunodeficiency virus 1) [nM] | IC50 (HIV-1 HXB2D; [5]) [nM] | IC50 [1, 6] [nM] | IC50 [2, 7] [nM] | ID50 CEM (HTLV-IIIb) [µg/mL] | ID50 H9 (HTLV-IIIb) [µg/mL] | ID50 Jurkat (HTLV-IIIb) [µg/mL] | ID50 MT-4 (HTLV-IIIb) [µg/mL] | ID50 U937 (HTLV-IIIb) [µg/mL] | CCID50 CBMCs (CBMCs) [µM] | CCID50 MT-4 (MT-4) [µM] | CCID50 U937 (U937) [µM] | CCID50 Jurkat (Jurkat) [µM] | CCID50 H9 (H9) [µM] | CCID50 CEM (CEM) [µM] | CD50 (50% cytotoxic dose) (MT-4 cells) [µg/mL] | CD50 [3] [µg/mL] | further results |
| --- | --- | --- | --- | --- | --- | --- | --- | --- | --- | --- | --- | --- | --- | --- | --- | --- | --- | --- | --- | --- |
| Nc1ccn([C@@H]2CS[C@H](CO)O2)c(=O)n1 [3TC ™, reference compound] | – | – | – | – | – | – | – | – | – | – | – | – | – | – | – | – | – | – | – | IC50 (HIV-1 IIIB): 10 nM; IC50 (HIV-1 HXB2D; CBMCs, constructed virus HXB2D, read-out: IC50 HXB2D): 80 nM; IC50 ([1]; CBMCs, ddC resistance mutation, read-out: IC50 HXB2D-65 K→R): 125 nM; IC50 ([2]; CBMCs, 3TC™ and FTC resistance mutation, read-out: IC50 HXB2D-184 M→V): 42500 nM |
| Cc1cn([C@H]2C[C@H](N=[N+]=[N-])[C@@H](CO)O2)c(=O)[nH]c1=O [AZT, 3′-azido-3′-deoxythymidine, reference compound] | 0.01 (≈ 0.0374 µM) | < 0.002 | 2 | 2 | 1 | 1 | 0.01 (≈ 0.0374 µM) | 0.07 (≈ 0.262 µM) | 0.01 (≈ 0.0374 µM) | 0.005 (≈ 0.0187 µM) | 0.04 (≈ 0.15 µM) | 45 | 110 | 110 | >500 | 200 | 500 | – | – | – |
| Nc1ccn(C2COC(CO)S2)c(=O)n1 (stereo not drawn) [BCH-270, Cis- and Trans-2-hydroxymethyl-4-(cytosin-1′-yl)-1,3-oxathiolane] | 4 (≈ 17.4 µM) | 0.03 (≈ 0.131 µM) | – | – | – | – | – | – | – | – | – | – | – | – | – | – | – | >100 | >23 | ID50 (HBV) (human hepatitis B virus): 7.5 µg/mL (≈ 32.7 µM); CD50 (HBV) [4]: >10 µg/mL |
| Nc1ccn([C@H]2CO[C@@H](CO)S2)c(=O)n1 [Compound #1, 2R-hydroxymethyl-4R-(cytosin-1′-yl)-1,3-oxathiolane] | 13 (≈ 56.7 µM) | 0.05 to 1.22 (≈ 0.218 to 5.32 µM) | 220 | 1000 | 2500 | 530 | 0.2 (≈ 0.872 µM) | 0.3 (≈ 1.31 µM) | 3.0 (≈ 13.1 µM) | 2.8 (≈ 12.2 µM) | 0.4 (≈ 1.74 µM) | >500 | >500 | >500 | 450 | >500 | >500 | >100 | >23 | – |
